We go through 1 molecule from patent publication JP2011032172A, “酸化ストレス低減剤。” (Mitsubishi Gas Chemical Co Inc, priority 2009, dated 2011).

For one assay, the system named is 8−OHdG. In words: urinary 8-OHdG production rate in placebo-controlled double-blind parallel-group human trial (ELISA). The assay is classed as in vivo. The conditions noted are these: healthy adult men and women 45-65 years; PQQ disodium salt 20 mg hard capsule after breakfast daily, 3 months; early-morning urine before and at 4, 8, 12 weeks; result in words (rate calculated in ng/kg/hr).

The subject of assay [1] is hexanoyl-lysine (ヘキサノイルリジン(HEL)). The experiment in a line: urinary hexanoyl-lysine (HEL) production rate in the same human trial (ELISA). The conditions noted are these: healthy adult men and women 45-65 years; PQQ disodium salt 20 mg hard capsule after breakfast daily, 3 months; urine from same two groups as Example 1; result in words (rate calculated in pmol/kg/hr). The assay is classed as in vivo.

As for `O=C(O)c1cc(C(=O)O)c2c(n1)C(=O)C(=O)c1cc(C(=O)O)[nH]c1-2` [PQQ, ピロロキノリンキノン, 二ナトリウム塩], the “8−OHdG production rate” value in the assay with 8−OHdG is on record as “低下傾向”. In addition, in assay [1], the HEL production rate entry is recorded as “低下傾向”.
